# Assay results as given in article PMC8011784, “Chronic peptide-based GIP receptor inhibition exhibits modest glucose metabolic changes in mice when administered either alone or combined with GLP-1 agonism” (PLoS ONE, 2021).
# Columns and labels:
# [1] = system: DIO mice; assay: Chronic GIPA-1 study: OGTT and insulin responses in DIO mice; format: in vivo, mouse; details: n = 10
# Experimental: 23-week-old male C57BL/6JRj mice (n = 40), fed a HFD (SSNIFF® diet #12492[60% fat, 20% protein, 20% carbohydrate]) for 14 weeks, were distributed into 4 test groups and received daily either vehicle, liraglutide (0.2 mg/kg/day), GIPA-1 (~4.5 mg/kg/day) or liraglutide + GIPA-1 for 4 weeks while still maintained on HFD. GIPA-1 was delivered using minipumps in order to achieve sufficient GIPR antagonism based on the properties of this peptide (Fig 2A). Liraglutide was dissolved in phosphate-buffered saline (PBS) plus 0.1% bovine serum albumin (BSA) (vehicle 1) and GIPA-1 in DMSO/propylene glycol (50/50 volume per volume) (vehicle 2). 100 μL minipumps (Alzet) were filled with GIPA-1 (30 mg/mL) or vehicle 2 and kept in 0.9% saline at 37°C overnight. The minipump was placed subcutaneously through a 1-cm long incision in the neck with the animal under isoflurane anesthesia. Animals were treated with analgesics on day 0–3 (NSAID, carprofen 50 mg/kg SC QD). […] Fasted (4 hrs) blood glucose and insulin levels were measured on study day -3, 14 and 27. […] Blood glucose was measured before their daily dosing and at 0, 15, 30 60, 120, 180 min after glucose administration. Plasma insulin was measured at 0 and 15 min. Whole body weight and food intake were measured throughout the study period. […]
# Fig 3 Effects of GIPA-1 and GIPA-2 on oral glucose tolerance and insulin responses in DIO mice. […] Statistical analysis was calculated using two-way ANOVA with Tukey’s post-hoc test and one-way ANOVA with Dunnett’s post-hoc test. *: p< 0.05, **: p < 0.01, ***: p < 0.001, ****: p<0.0001 compared to vehicle.
# [2] = system: DIO mice; assay: Chronic GIPA-1 study: circulating lipids, liver and fat depots in DIO mice; format: in vivo, mouse; details: day 28, n = 10
# Experimental: 23-week-old male C57BL/6JRj mice (n = 40), fed a HFD (SSNIFF® diet #12492[60% fat, 20% protein, 20% carbohydrate]) for 14 weeks, were distributed into 4 test groups and received daily either vehicle, liraglutide (0.2 mg/kg/day), GIPA-1 (~4.5 mg/kg/day) or liraglutide + GIPA-1 for 4 weeks while still maintained on HFD. GIPA-1 was delivered using minipumps in order to achieve sufficient GIPR antagonism based on the properties of this peptide (Fig 2A). Liraglutide was dissolved in phosphate-buffered saline (PBS) plus 0.1% bovine serum albumin (BSA) (vehicle 1) and GIPA-1 in DMSO/propylene glycol (50/50 volume per volume) (vehicle 2). 100 μL minipumps (Alzet) were filled with GIPA-1 (30 mg/mL) or vehicle 2 and kept in 0.9% saline at 37°C overnight. The minipump was placed subcutaneously through a 1-cm long incision in the neck with the animal under isoflurane anesthesia. Animals were treated with analgesics on day 0–3 (NSAID, carprofen […] SC QD). From day 0 (first dose) through day 28, mice received one of the following four treatments per day: (1) vehicle 1 (subcutaneous injection (SC)) and continuous infusion of vehicle 2 via osmotic minipump; (2) 0.2 mg/kg liraglutide (SC) and continuous infusion of vehicle 2 via osmotic minipump; (3) vehicle 1 (SC) and continuous infusion of GIPA-1 (~4.5 mg/kg/day; 56.8 nmol/kg/h) via osmotic minipump; and (4) liraglutide (0.2 mg/kg liraglutide, SC) plus continuous infusion of GIPA-1 (~4.5 mg/kg/day) via osmotic minipump. Dose levels of GIPA-1 were based on targeting plasma exposure levels sufficient to antagonise endogenous GIP and selected based on in vitro antagonism data. Fasted (4 hrs) blood glucose and insulin levels were measured on study day -3, 14 and 27. OGTT was performed on day 21 of the study. On the day of the OGTT the fasted animals received their daily doses of vehicles and liraglutide thirty minutes before receiving a glucose bolus (2 g/kg). Blood glucose was measured before their daily dosing and at 0, 15, 30 60, 120, 180 min after glucose administration. Plasma insulin was measured at 0 and 15 min. Whole body weight and food intake were measured throughout the study period. On the termination day (day 28), liver, epididymal fat depot, mesenteric fat depot, retroperitoneal fat depot and inguinal fat depot were dissected and weighted. Blood collected from the tail vein was used for determination of free fatty acids (FFAs) plasma concentration and blood collected via cardiac puncture was used for determination of terminal plasma triglyceride (TG) and total cholesterol (TC).
# Fasting blood glucose was measured using a BIOSEN c-Line glucose meter (EKF-Diagnostics), insulin was measured using the Meso Scale Diagnostics platform, TG and TC were measured using commercial kits (Roche Diagnostics) on the Cobas C-501 autoanalyzer (Roche), and FFA levels were measured using a Wako Chemicals kit on the Cobas C-501 autoanalyzer, all according to the manufacturers’ instructions. Homeostatic model assessment of insulin resistance (HOMA-IR) was calculated using the following equation: [fasting serum glucose (mmol/L) × fasting serum insulin (pmol/L) / 22.5] to assess insulin resistance.
# Fig 4 The effect of GIPR antagonism alone or in combination with liraglutide on lipid homeostasis in DIO mice. […] Statistical analysis was calculated using one-way ANOVA with Dunnett’s post-hoc test. *: p< 0.05, **: p < 0.01, ***: p < 0.001, ****: p<0.0001 compared to vehicle. […]
substance,measurement,setting,value
liraglutide,insulin at time 0 of the OGTT,"[1]; day 21, fasted, GIPA-1 study",liraglutide-induced decrement in insulin at time 0 of the OGTT
same,baseline blood glucose (-30 min) of OGTT,"[1]; day 21, GIPA-1 study",lower in the liraglutide group and in the combination group
same,glucose excursion in OGTT,"[1]; day 21, oral glucose 2 g/kg, liraglutide 0.2 mg/kg SC, GIPA-1 ~4.5 mg/kg/day minipump",beneficial glucose lowering effects of liraglutide
same,circulating total cholesterol (TC),[2],significantly reduced circulating TC and liver TG concentrations
same,liver TG,[2],significantly reduced circulating TC and liver TG concentrations
same,plasma FFA,[2],no effect on either plasma TG or concentrations of circulating FFA
same,plasma TG,[2],no effect on either plasma TG or concentrations of circulating FFA
same,retroperitoneal fat weight,[2],reduced in the GIPA-1 study in both the liraglutide and combination groups
